{"source": "the supplement of paper PMC12463676", "about": "“Small-molecule dissolution of stress granules by redox modulation benefits ALS models” (Nature Chemical Biology, 2025);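 also: each temperature applied for 3 min, abundance score taken as mean log2 fold change at the two lowest temperatures, z-score obtained by mean subtraction and division by SD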", "data": [{"compound": "O=[As]([O-])(O)O.[K+] [potassium arsenate]", "assay": "thermal stability z-score vs DMSO; higher = more thermally stabilized by treatment", "conditions": "HeLa; arsenate concentration 1 mM", "method": "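Cellular thermal proteome profiling in HeLa cells treated with 1 mM arsenate for 1 h (DMSO pretreatment), heated to ten temperatures (37-66.3 °C). Soluble protein was quantified by TMT mass spectrometry relative to DMSO controls; the thermal stability score was transformed to a z-score; mean of n = 3 experiments.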", "values": [{"target": "EXOSC4 (UniProt Q9NPD3)", "thermal stability z-score": -0.872}, {"target": "MRPL47 (UniProt Q9HD33)", "thermal stability z-score": 0.268}, {"target": "TP53RK (UniProt Q96S44)", "thermal stability z-score": -0.367}, {"target": "POLR1B (UniProt Q9H9Y6)", "thermal stability z-score": -1.91}, {"target": "PMPCA (UniProt Q10713)", "thermal stability z-score": 0.0736}, {"target": "COBL (UniProt O75128)", "thermal stability z-score": -0.0126}, {"target": "ALKBH2 (UniProt Q6NS38)", "thermal stability z-score": 1.45}, {"target": "CHP1 (UniProt Q99653)", "thermal stability z-score": 1.28}, {"target": "MICALL2 (UniProt Q8IY33)", "sequence (Q8IY33 whole entry)": "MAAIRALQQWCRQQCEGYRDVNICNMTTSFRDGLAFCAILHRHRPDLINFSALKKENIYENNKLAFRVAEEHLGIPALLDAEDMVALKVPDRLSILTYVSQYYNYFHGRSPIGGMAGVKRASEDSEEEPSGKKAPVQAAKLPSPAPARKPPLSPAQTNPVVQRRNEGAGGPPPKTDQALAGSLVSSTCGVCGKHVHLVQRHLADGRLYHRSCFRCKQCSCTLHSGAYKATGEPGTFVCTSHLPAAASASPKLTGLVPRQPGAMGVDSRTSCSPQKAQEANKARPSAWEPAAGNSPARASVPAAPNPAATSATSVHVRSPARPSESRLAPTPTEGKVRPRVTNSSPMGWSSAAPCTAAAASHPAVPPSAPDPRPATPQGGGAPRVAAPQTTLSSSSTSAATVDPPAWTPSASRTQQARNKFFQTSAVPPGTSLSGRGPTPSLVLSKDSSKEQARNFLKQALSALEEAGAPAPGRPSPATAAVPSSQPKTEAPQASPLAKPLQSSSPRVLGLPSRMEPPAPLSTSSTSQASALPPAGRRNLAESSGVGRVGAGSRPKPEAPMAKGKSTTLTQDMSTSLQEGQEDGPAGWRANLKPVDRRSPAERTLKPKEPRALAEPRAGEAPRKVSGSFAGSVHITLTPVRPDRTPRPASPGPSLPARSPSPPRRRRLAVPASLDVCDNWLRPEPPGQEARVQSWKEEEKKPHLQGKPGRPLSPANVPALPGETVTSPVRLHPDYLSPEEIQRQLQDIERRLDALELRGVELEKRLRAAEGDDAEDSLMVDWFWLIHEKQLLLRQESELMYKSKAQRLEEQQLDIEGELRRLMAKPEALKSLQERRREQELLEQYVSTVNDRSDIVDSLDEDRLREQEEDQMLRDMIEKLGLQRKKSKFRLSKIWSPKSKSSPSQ", "thermal stability z-score": -0.0438}, {"target": "DHX36 (UniProt Q9H2U1)", "thermal stability z-score": -0.0639}, {"target": "VKORC1 (UniProt Q9BQB6)", "thermal stability z-score": 0.856}, {"target": "HTT (UniProt P42858)", "thermal stability z-score": 0.319}, {"target": "KIAA1217 (UniProt Q5T5P2)", "sequence (Q5T5P2 whole entry)": "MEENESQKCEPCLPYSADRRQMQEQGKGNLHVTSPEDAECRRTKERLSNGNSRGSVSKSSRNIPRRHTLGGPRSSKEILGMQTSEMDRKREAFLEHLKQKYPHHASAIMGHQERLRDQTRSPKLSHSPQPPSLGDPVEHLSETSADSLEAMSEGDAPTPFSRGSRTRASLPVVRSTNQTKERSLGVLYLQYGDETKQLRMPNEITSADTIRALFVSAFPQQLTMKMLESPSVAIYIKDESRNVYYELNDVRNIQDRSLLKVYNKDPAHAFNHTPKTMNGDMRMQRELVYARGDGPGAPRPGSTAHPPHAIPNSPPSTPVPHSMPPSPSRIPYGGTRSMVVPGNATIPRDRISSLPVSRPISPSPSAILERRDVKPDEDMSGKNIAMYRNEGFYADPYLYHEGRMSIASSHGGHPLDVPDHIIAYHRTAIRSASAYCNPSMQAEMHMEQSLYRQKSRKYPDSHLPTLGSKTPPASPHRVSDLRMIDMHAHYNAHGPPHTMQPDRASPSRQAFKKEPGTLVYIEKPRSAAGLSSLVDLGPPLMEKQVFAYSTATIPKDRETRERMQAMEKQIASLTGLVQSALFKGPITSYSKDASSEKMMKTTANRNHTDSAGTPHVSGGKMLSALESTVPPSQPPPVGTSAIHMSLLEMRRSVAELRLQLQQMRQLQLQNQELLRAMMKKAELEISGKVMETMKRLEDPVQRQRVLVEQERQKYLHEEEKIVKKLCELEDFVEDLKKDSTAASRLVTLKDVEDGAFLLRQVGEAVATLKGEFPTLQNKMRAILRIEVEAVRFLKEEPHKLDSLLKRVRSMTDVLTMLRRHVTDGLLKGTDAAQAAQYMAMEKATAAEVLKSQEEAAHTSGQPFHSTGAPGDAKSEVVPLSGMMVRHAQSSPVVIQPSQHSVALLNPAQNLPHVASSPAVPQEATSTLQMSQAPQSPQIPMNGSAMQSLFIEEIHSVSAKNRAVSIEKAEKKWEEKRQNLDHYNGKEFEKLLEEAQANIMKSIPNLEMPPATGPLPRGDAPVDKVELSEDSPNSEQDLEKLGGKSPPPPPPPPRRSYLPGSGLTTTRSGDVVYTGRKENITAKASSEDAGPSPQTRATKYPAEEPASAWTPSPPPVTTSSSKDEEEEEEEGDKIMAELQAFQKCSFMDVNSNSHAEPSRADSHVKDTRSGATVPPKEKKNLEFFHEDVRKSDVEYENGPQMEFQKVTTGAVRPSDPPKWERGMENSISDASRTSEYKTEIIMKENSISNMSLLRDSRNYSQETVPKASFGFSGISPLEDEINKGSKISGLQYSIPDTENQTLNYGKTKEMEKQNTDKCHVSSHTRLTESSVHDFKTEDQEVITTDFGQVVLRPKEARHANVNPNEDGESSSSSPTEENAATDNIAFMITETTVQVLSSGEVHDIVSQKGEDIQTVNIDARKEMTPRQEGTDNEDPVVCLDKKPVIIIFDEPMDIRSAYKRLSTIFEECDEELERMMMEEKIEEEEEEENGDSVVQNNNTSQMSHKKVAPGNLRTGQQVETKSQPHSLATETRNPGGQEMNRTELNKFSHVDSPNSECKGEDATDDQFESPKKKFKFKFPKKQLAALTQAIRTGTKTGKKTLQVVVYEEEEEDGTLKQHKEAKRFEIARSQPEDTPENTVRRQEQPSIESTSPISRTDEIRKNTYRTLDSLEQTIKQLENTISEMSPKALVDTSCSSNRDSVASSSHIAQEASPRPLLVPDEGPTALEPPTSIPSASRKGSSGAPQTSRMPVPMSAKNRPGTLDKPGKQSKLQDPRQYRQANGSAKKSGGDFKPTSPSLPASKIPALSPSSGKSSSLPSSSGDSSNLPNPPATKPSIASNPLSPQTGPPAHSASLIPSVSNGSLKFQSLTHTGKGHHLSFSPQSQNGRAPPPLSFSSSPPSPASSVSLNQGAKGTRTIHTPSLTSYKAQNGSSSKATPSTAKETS", "thermal stability z-score": 0.188}, {"target": "NUP188 (UniProt Q5SRE5)", "thermal stability z-score": 0.426}, {"target": "AGFG2 (UniProt O95081)", "thermal stability z-score": -0.791}, {"target": "RELB (UniProt Q01201)", "thermal stability z-score": 0.048}, {"target": "AP1B1 (UniProt Q10567)", "thermal stability z-score": 0.425}, {"target": "ACSL4 (UniProt O60488)", "thermal stability z-score": -1.66}, {"target": "STAG2 (UniProt Q8N3U4)", "thermal stability z-score": -0.0489}, {"target": "TIMM50 (UniProt Q3ZCQ8)", "thermal stability z-score": -0.391}, {"target": "PMM1 (UniProt Q92871)", "sequence (Q92871 whole entry)": "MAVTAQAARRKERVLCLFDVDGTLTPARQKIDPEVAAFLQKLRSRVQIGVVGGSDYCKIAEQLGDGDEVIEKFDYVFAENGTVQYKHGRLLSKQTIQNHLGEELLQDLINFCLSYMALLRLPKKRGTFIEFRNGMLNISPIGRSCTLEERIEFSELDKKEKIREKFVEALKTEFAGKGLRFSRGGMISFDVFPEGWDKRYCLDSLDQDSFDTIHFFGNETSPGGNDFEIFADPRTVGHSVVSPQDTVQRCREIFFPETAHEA", "thermal stability z-score": 0.274}, {"target": "SNRPC (UniProt P09234)", "thermal stability z-score": 0.905}, {"target": "MRPL18 (UniProt Q9H0U6)", "thermal stability z-score": -0.799}, {"target": "NUBP2 (UniProt Q9Y5Y2)", "thermal stability z-score": -0.461}, {"target": "ALKBH1 (UniProt Q13686)", "sequence (Q13686 whole entry)": "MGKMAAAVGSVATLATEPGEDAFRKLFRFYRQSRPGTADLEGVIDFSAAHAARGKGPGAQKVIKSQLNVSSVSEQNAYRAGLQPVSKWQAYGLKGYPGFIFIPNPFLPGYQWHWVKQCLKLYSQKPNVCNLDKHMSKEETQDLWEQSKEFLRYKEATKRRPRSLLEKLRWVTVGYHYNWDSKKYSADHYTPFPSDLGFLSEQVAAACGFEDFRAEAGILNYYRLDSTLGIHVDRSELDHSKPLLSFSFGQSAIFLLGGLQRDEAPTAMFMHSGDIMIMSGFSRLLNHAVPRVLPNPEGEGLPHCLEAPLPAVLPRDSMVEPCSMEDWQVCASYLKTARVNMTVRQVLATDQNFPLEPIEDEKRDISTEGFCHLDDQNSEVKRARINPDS", "thermal stability z-score": 0.295}, {"target": "CHMP7 (UniProt Q8WUX9)", "sequence (Q8WUX9 whole entry)": "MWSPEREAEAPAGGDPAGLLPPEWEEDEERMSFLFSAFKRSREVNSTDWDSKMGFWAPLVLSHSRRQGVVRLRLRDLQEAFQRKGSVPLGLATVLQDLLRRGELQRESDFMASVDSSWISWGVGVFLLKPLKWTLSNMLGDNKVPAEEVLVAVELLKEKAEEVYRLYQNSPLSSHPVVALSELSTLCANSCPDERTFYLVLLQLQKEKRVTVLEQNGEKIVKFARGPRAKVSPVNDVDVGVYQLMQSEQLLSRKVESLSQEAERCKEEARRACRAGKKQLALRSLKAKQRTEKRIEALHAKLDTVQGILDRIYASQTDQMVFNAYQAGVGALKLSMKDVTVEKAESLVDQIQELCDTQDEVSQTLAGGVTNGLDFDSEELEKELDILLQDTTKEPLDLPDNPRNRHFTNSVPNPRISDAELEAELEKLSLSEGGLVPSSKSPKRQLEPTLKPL", "thermal stability z-score": -0.0641}, {"target": "FAM192A (UniProt Q9GZU8)", "sequence (Q9GZU8 whole entry)": "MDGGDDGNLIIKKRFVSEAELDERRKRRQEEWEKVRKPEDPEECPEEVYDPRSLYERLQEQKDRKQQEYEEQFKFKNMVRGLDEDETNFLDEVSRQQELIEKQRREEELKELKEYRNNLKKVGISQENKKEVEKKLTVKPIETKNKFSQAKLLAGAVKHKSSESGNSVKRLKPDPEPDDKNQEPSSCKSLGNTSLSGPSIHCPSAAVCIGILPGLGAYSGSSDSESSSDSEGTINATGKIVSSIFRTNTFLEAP", "thermal stability z-score": -0.58}, {"target": "CTDP1 (UniProt Q9Y5B0)", "thermal stability z-score": -0.903}, {"target": "AQR (UniProt O60306)", "thermal stability z-score": -0.643}, {"target": "SNF8 (UniProt Q96H20)", "thermal stability z-score": -0.156}, {"target": "FAM45BP|FAM45A", "thermal stability z-score": 1.44}, {"target": "SLC25A1 (UniProt P53007)", "thermal stability z-score": 0.43}, {"target": "GXYLT1 (UniProt Q4G148)", "thermal stability z-score": 0.387}, {"target": "MPHOSPH10 (UniProt O00566)", "thermal stability z-score": 0.849}, {"target": "STRN4 (UniProt Q9NRL3)", "sequence (Q9NRL3 whole entry)": "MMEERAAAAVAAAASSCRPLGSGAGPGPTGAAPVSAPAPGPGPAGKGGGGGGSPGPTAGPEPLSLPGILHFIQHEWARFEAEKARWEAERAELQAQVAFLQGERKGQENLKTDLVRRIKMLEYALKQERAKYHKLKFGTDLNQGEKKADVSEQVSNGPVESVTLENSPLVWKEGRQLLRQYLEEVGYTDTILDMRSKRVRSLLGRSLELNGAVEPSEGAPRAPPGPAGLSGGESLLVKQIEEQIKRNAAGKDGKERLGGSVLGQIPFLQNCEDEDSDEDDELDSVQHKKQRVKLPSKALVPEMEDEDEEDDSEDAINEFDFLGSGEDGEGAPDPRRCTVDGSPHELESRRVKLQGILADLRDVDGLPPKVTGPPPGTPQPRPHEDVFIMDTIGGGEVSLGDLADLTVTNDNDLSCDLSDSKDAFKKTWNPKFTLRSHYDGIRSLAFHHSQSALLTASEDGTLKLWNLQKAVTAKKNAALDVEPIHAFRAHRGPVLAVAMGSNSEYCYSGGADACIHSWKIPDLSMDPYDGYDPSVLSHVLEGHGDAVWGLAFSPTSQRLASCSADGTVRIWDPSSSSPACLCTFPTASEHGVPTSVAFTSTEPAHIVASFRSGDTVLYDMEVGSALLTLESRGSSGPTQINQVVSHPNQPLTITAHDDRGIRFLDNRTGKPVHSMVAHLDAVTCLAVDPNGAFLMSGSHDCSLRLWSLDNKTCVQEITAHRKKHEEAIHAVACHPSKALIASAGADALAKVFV", "thermal stability z-score": 0.937}, {"target": "RARS2 (UniProt Q5T160)", "thermal stability z-score": 0.328}, {"target": "AEBP2 (UniProt Q6ZN18)", "thermal stability z-score": -0.00304}, {"target": "YPEL5 (UniProt P62699)", "thermal stability z-score": -0.117}, {"target": "UNC45A (UniProt Q9H3U1)", "thermal stability z-score": 0.158}, {"target": "PPP4R1 (UniProt Q8TF05)", "thermal stability z-score": 0.0118}, {"target": "PHKA2 (UniProt P46019)", "thermal stability z-score": -0.0062}, {"target": "CUL5 (UniProt Q93034)", "thermal stability z-score": 0.131}, {"target": "GKAP1 (UniProt Q5VSY0)", "thermal stability z-score": -0.0462}, {"target": "USP33 (UniProt Q8TEY7)", "thermal stability z-score": 1.21}, {"target": "CCDC94 (UniProt Q9BW85)", "thermal stability z-score": -0.951}, {"target": "UBTF (UniProt P17480)", "thermal stability z-score": 0.532}, {"target": "NFIA (UniProt Q12857)", "thermal stability z-score": -0.647}, {"target": "UGP2 (UniProt Q16851)", "thermal stability z-score": 0.872}, {"target": "STK38L (UniProt Q9Y2H1)", "thermal stability z-score": 0.201}, {"target": "ME3 (UniProt Q16798)", "thermal stability z-score": 0.6}, {"target": "ECE1 (UniProt P42892)", "thermal stability z-score": -0.191}, {"target": "YBX1 (UniProt P67809)", "thermal stability z-score": -0.894}, {"target": "CSE1L (UniProt P55060)", "thermal stability z-score": 0.016}, {"target": "RAD51B (UniProt O15315)", "thermal stability z-score": 0.578}, {"target": "ALDH16A1 (UniProt Q8IZ83)", "thermal stability z-score": -0.784}, {"target": "CCNB1 (UniProt P14635)", "thermal stability z-score": 1.43}, {"target": "TFDP1 (UniProt Q14186)", "thermal stability z-score": -0.0388}, {"target": "PI4KB (UniProt Q9UBF8)", "thermal stability z-score": 0.692}, {"target": "HIST1H1E (UniProt P10412)", "thermal stability z-score": 0.618}, {"target": "ALG14 (UniProt Q96F25)", "thermal stability z-score": -0.257}, {"target": "UPF1 (UniProt Q92900)", "thermal stability z-score": 0.172}, {"target": "LONP1 (UniProt P36776)", "thermal stability z-score": -0.763}, {"target": "ALDH1A3 (UniProt P47895)", "thermal stability z-score": -0.284}, {"target": "C10ORF76 (UniProt Q5T2E6)", "thermal stability z-score": 0.613}, {"target": "SHKBP1 (UniProt Q8TBC3)", "thermal stability z-score": -0.372}, {"target": "DPH6 (UniProt Q7L8W6)", "thermal stability z-score": -0.722}, {"target": "ABI1 (UniProt Q8IZP0)", "thermal stability z-score": -0.656}, {"target": "DNAAF5 (UniProt Q86Y56)", "thermal stability z-score": 0.875}, {"target": "MRE11A (UniProt P49959)", "thermal stability z-score": -0.619}, {"target": "PSMA5 (UniProt P28066)", "thermal stability z-score": -0.238}, {"target": "SMYD3 (UniProt Q9H7B4)", "thermal stability z-score": -0.25}]}, {"compound": "NC(=O)CCCCC1CCSS1 [lipoamide]", "assay": "thermal stability z-score vs DMSO; higher = more thermally stabilized by treatment", "conditions": "HeLa; lipoamide concentration 100 µM; arsenate co-treatment: 1 mM arsenate 1 h", "method": "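Cellular thermal proteome profiling in HeLa cells. Cells were treated with 100 µM lipoamide for 1 h, with or without 1 mM arsenate for a further 1 h, then heated to ten temperatures (37-66.3 °C), and soluble protein was quantified by TMT mass spectrometry relative to 0.1% DMSO controls. The thermal stability score (sum of log2 fold changes minus the abundance score) was transformed to a z-score; mean of n = 3 experiments.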", "values": [{"target": "EXOSC4 (UniProt Q9NPD3)", "thermal stability z-score": 0.821}, {"target": "MRPL47 (UniProt Q9HD33)", "thermal stability z-score": -0.428}, {"target": "TP53RK (UniProt Q96S44)", "thermal stability z-score": 0.0309}, {"target": "POLR1B (UniProt Q9H9Y6)", "thermal stability z-score": 0.138}, {"target": "PMPCA (UniProt Q10713)", "thermal stability z-score": -0.137}, {"target": "COBL (UniProt O75128)", "thermal stability z-score": 0.182}, {"target": "ALKBH2 (UniProt Q6NS38)", "thermal stability z-score": 0.407}, {"target": "CHP1 (UniProt Q99653)", "thermal stability z-score": 0.377}, {"target": "MICALL2 (UniProt Q8IY33)", "thermal stability z-score": -0.157}, {"target": "DHX36 (UniProt Q9H2U1)", "thermal stability z-score": -0.0301}, {"target": "VKORC1 (UniProt Q9BQB6)", "thermal stability z-score": -1.71}, {"target": "HTT (UniProt P42858)", "thermal stability z-score": 0.301}, {"target": "KIAA1217 (UniProt Q5T5P2)", "thermal stability z-score": -0.00757}, {"target": "NUP188 (UniProt Q5SRE5)", "thermal stability z-score": -0.451}, {"target": "AGFG2 (UniProt O95081)", "thermal stability z-score": -0.423}, {"target": "RELB (UniProt Q01201)", "thermal stability z-score": -0.128}, {"target": "AP1B1 (UniProt Q10567)", "thermal stability z-score": 0.216}, {"target": "ACSL4 (UniProt O60488)", "thermal stability z-score": 0.208}, {"target": "STAG2 (UniProt Q8N3U4)", "thermal stability z-score": 0.281}, {"target": "TIMM50 (UniProt Q3ZCQ8)", "thermal stability z-score": -0.412}, {"target": "PMM1 (UniProt Q92871)", "thermal stability z-score": -0.14}, {"target": "SNRPC (UniProt P09234)", "thermal stability z-score": 0.137}, {"target": "MRPL18 (UniProt Q9H0U6)", "thermal stability z-score": -0.339}, {"target": "NUBP2 (UniProt Q9Y5Y2)", "thermal stability z-score": 0.35}, {"target": "ALKBH1 (UniProt Q13686)", "thermal stability z-score": 0.0966}, {"target": "CHMP7 (UniProt Q8WUX9)", "thermal stability z-score": -0.517}, {"target": "FAM192A (UniProt Q9GZU8)", "thermal stability z-score": -0.00729}, {"target": "CTDP1 (UniProt Q9Y5B0)", "thermal stability z-score": -0.373}, {"target": "AQR (UniProt O60306)", "thermal stability z-score": 0.37}, {"target": "SNF8 (UniProt Q96H20)", "thermal stability z-score": -0.129}, {"target": "FAM45BP|FAM45A", "thermal stability z-score": 0.335}, {"target": "SLC25A1 (UniProt P53007)", "thermal stability z-score": 1.03}, {"target": "GXYLT1 (UniProt Q4G148)", "thermal stability z-score": -0.938}, {"target": "MPHOSPH10 (UniProt O00566)", "thermal stability z-score": 0.544}, {"target": "STRN4 (UniProt Q9NRL3)", "thermal stability z-score": -0.136}]}]}
